Reference: article PMC8219695 (Nature Communications, 2021)
Values joined by “and” are separate entries in the source; they are usually repeats but may differ in a detail not shown here. Identical values can stand only once.

How the values were obtained:
CD1 mice = assay: Tail-flick antinociception in CD1 mice; assay type: in vivo, mouse; details: sc; for Tail flick (%MPE) / Tail flick latency: individual animals; for Tail flick (%MPE), average / Tail flick latency in secs, Av: average of 11 animals; for Tail flick latency in secs, mean: mean of 8 animals
rKOR = biological target: T1, rKOR (Rattus norvegicus, UniProt P34975); assay: CAMYEL BRET cAMP agonist assay at rKOR; assay type: cell-based; details: individual replicates, Supplementary Figure 8B source data
T1 construct: expressed in transfected cells
T1 sequence (P34975 whole entry): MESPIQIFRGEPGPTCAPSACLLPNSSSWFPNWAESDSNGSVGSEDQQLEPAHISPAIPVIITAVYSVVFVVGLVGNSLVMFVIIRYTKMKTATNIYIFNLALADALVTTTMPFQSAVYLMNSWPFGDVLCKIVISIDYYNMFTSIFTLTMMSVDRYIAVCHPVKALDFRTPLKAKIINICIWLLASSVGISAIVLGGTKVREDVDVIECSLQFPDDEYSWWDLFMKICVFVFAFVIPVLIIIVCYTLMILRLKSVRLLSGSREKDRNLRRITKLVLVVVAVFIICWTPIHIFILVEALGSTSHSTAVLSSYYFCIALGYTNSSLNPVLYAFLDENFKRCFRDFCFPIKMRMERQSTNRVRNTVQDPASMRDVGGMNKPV

hMOR = biological target: T2, hMOR (Homo sapiens, UniProt P35372); assay: CAMYEL BRET cAMP agonist assay at hMOR; assay type: cell-based; details: for cAMP %: hMOR, single replicates, source data Fig 6c, listed as C11-F-7OH (22)
T2 construct: expressed in transfected cells; plasmid a gift from Dr. Nevin Lambert
T2 sequence (P35372 whole entry): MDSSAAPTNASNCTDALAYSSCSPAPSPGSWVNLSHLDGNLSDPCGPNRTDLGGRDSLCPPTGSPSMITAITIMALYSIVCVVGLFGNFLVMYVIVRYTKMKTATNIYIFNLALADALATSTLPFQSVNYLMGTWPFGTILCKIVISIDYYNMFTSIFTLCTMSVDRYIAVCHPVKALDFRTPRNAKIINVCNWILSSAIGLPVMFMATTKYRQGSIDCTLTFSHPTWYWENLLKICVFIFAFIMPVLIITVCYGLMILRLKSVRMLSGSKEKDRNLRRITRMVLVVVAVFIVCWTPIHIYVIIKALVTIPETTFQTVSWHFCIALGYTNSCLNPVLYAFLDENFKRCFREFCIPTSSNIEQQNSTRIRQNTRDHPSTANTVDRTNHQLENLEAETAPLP

mDOR = biological target: T3, mDOR (Mus musculus, UniProt P32300); assay: [125I]BNtxA radioligand competition binding, mouse DOR; details: mean ± SEM, n = 3; [125I]BNtxA; read-out: Ki ± SEM mDOR
T3 construct: expressed in transfected cells
T3 sequence (P32300 whole entry): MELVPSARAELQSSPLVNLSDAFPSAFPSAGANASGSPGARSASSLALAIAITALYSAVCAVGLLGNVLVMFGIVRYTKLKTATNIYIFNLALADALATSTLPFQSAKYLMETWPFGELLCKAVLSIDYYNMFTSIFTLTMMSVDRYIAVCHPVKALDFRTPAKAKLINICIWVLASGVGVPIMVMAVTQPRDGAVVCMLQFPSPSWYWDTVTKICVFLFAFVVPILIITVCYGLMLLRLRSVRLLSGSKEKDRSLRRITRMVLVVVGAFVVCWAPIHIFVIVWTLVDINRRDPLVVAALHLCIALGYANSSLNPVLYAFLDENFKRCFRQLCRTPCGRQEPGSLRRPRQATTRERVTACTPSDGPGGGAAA

mMOR = biological target: T4, mMOR (Mus musculus, UniProt P42866); assay: CAMYEL BRET cAMP agonist assay at mMOR; assay type: cell-based; details: mMOR; for cAMP %: single replicates, source data Fig 6b, listed as C11-F-7OH (22)
T4 construct: signal peptide (heterologous, not specified) (N); expressed in transfected cells; pcDNA3.1(+) construct made in house
T4 sequence (P42866 whole entry): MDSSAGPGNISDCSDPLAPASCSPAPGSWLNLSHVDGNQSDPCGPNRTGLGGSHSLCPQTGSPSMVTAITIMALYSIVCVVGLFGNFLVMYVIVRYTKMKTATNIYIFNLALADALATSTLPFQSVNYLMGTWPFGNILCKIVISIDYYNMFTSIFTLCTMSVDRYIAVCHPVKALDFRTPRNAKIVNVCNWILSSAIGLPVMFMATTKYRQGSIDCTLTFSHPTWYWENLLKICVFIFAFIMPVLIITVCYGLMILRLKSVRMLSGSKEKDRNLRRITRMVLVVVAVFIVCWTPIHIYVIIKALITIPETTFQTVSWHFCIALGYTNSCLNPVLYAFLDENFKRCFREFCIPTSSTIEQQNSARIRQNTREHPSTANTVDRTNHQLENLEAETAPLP

[1] = Log[drug] (M) -13, cAMP inhibition as % of DAMGO

CC[C@@H]1CN2CC[C@@]3(O)C(=Nc4cc(F)cc(OC)c43)[C@@H]2C[C@@H]1/C(=C\OC)C(=O)OC [11-F-7OH (22), 11-Fluoro-7-hydroxymitragynine]
Tail flick (%MPE) (CD1 mice; 5 mg/kg, 30 min): 15 %MPE and 100 %MPE and 37 %MPE and 11 %MPE and 14 %MPE and 21 %MPE and 19 %MPE and 56 %MPE and 32 %MPE and 4 %MPE and 38 %MPE | Tail flick latency (CD1 mice; 5 mg/kg, 30 min): 3.4 secs (2×) and 10.0 secs and 4.9 secs and 3.8 secs and 3.6 secs (2×) and 6.4 secs and 4.6 secs and 2.9 secs and 5.1 secs | Tail flick (%MPE), average (CD1 mice; 5 mg/kg, 60 min): 13 %MPE | Tail flick latency in secs, Av (CD1 mice; 5 mg/kg, 60 min): 3.3 s | Tail flick (%MPE) (CD1 mice; 5 mg/kg, 60 min): 15 %MPE and 34 %MPE and 31 %MPE and -9 %MPE and -7.53 %MPE and 10 %MPE and 8 %MPE and 33 %MPE and 11 %MPE and 2.7 %MPE and 18 %MPE | Tail flick latency (CD1 mice; 5 mg/kg, 60 min): 3.4 secs and 4.9 secs and 4.4 secs and 1.9 secs and 2.2 secs and 2.7 secs and 2.8 secs (2×) and 4.6 secs and 2.9 secs and 3.5 secs | Tail flick (%MPE), average (CD1 mice; 5 mg/kg, 120 min): 15 %MPE | Tail flick latency in secs, Av (CD1 mice; 5 mg/kg, 120 min): 3.4 s | Tail flick (%MPE) (CD1 mice; 5 mg/kg, 120 min): 38 %MPE and 44 %MPE and 49 %MPE and -4 %MPE and -12 %MPE and 6 %MPE (2×) and 3.8 %MPE and -1.23 %MPE and 9 %MPE and 22 %MPE | Tail flick latency (CD1 mice; 5 mg/kg, 120 min): 5.2 secs and 5.7 secs and 5.9 secs and 2.3 secs (2×) and 1.8 secs (2×) and 2.4 secs and 2.5 secs and 3.3 secs and 3.8 secs | Tail flick (%MPE) (CD1 mice; Fig 9b, 5 mg/kg): 17.7 %MPE and 17.8 %MPE and 17.3 %MPE and 17.1 %MPE and 26.9 %MPE and 34.1 %MPE and 38.3 %MPE and 27.3 %MPE | Tail flick latency (CD1 mice; Fig 9b, 5 mg/kg): 3.5 s and 4.0 s and 3.3 s and 3.7 s and 4.3 s and 4.6 s and 5.0 s and 4.4 s | Tail flick latency in secs, mean (CD1 mice; Fig 9b, 5 mg/kg): 4.1 s | Tail flick (%MPE) (CD1 mice; Fig 9b, 10 mg/kg): 24.1 %MPE and 13.7 %MPE and 25.9 %MPE and 28.9 %MPE and 26.9 %MPE and 39.0 %MPE and 32.1 %MPE and 27.3 %MPE | Tail flick latency (CD1 mice; Fig 9b, 10 mg/kg): 4.0 secs (2×) and 3.7 secs and 4.6 secs and 4.3 secs and 5.0 secs and 4.5 secs and 4.4 secs | Tail flick latency in secs, mean (CD1 mice; Fig 9b, 10 mg/kg): 4.3 s | Tail flick (%MPE) (CD1 mice; Fig 9b, 25 mg/kg): 29.1 %MPE and 27.4 %MPE and 42.0 %MPE and 38.2 %MPE and 23.1 %MPE and 36.6 %MPE and 37.0 %MPE and 44.2 %MPE | Tail flick latency (CD1 mice; Fig 9b, 25 mg/kg): 4.4 secs and 4.7 secs and 5.3 secs (2×) and 4.0 secs and 4.8 secs and 4.9 secs and 5.7 secs | Tail flick latency in secs, mean (CD1 mice; Fig 9b, 25 mg/kg): 4.9 s | Agonist activity of 7OH analogs at rKOR (rKOR; Log [drug](M) -5): 22.082 and 29.1799 and 24.9804 and 9.107 and 13.0188 and 13.182 and 6.083 and 2.973 and 4.112 | Agonist activity of 7OH analogs at rKOR (rKOR; Log [drug](M) -6): 13.2987 and 25.9578 and 3.4416 and 5.534 and 11.6761 and -0.5648 and 7.283 and 13.1071 and 4.997 | Agonist activity of 7OH analogs at rKOR (rKOR; Log [drug](M) -7): 18.031 and 31.9599 and 33.0367 and -2.212 and 3.5973 and -1.385 and 1.635 and 2.31 and 9.2799 | Agonist activity of 7OH analogs at rKOR (rKOR; Log [drug](M) -8): 5.787 and -5.909 and 29.0355 and 11.9094 and 9.551 and -12.1962 and 10.3961 and -3.525 and 1.154 | Agonist activity of 7OH analogs at rKOR (rKOR; Log [drug](M) -9): 2.374 and 3.557 and 1.503 and 17.2927 and 4.288 and -5.051 and 9.998 and -1.969 and -2.384 | Agonist activity of 7OH analogs at rKOR (rKOR; Log [drug](M) -10): 1.539 and 1.5713 and -3.1102 and 5.6014 and 10.9469 and 10.7639 and 2.853 and 4.901 and 1.67 | Agonist activity of 7OH analogs at rKOR (rKOR; Log [drug](M) -11): -1.844 and 21.6085 and 6.867 and 10.1299 and 11.9047 and -4.025 and 6.309 and -3.657 and -2.652 | Agonist activity of 7OH analogs at rKOR (rKOR; Log [drug](M) -13): 18.2754 and 7.8104 and 16.2642 and 12.0322 and 1.984 and 9.1095 and -1.886 and 4.583 and -1.369 | EC50 (hMOR): 29.4 nM | Emax (hMOR): 57% | cAMP % (hMOR; Log[drug] (M) -5): 51.264% and 45.9513% and 58.1795% and 79.6476% and 68.1188% and 65.3013% and 52.2398% and 64.2986% and 49.6622% | cAMP % (hMOR; Log[drug] (M) -6): 56.7369% and 57.602% and 54.9333% and 67.8605% and 67.5648% and 53.8544% and 46.4412% and 33.3921% and 44.9213% | cAMP % (hMOR; Log[drug] (M) -7): 48.1791% and 37.8893% and 39.1827% and 53.5374% and 50.3292% and 51.3541% and 36.9409% and 28.5036% and 44.2511% | cAMP % (hMOR; Log[drug] (M) -8): 15.2392% and 22.4344% and 23.7656% and 25.1778% and 17.6434% and 19.3494% and 5.0692% and 13.2412% and 14.3735% | cAMP % (hMOR; Log[drug] (M) -9): 4.113% and -7.3719% and 5.178% and 7.448% and -11.6959% and 4.5476% and -1.276% and -3.182% and 19.3939% | cAMP % (hMOR; Log[drug] (M) -10): 2.241% and -1.74% and -0.501% and 4.727% and -5.3691% and 0.6426% and 5.237% and 2.017% and 7.517% | cAMP % (hMOR; Log[drug] (M) -11): 9.244% and 1.716% and -4.082% and 4.12% and 6.65% and 8.68% and 7.357% and 0.1804% and -7.538% | cAMP % (hMOR; [1]): 3.279% and -3.532% and 2.642% and -0.9485% and 1.819% and 3.865% and 2.979% and -0.05442% and 0.9166% | Ki (mDOR): 35.8 ± 2 nM | cAMP % (mMOR; Log[drug] (M) -5): 18.6612% and 13.4113% and 8.551% and 30.7876% and 22.9326% and 28.8572% and 20.3955% and 21.355% and 24.4984% | cAMP % (mMOR; Log[drug] (M) -6): 25.4304% and 7.798% and 14.3775% and 23.1589% and 22.9335% and 14.5614% and 26.2834% and 10.6621% and 13.744% | cAMP % (mMOR; Log[drug] (M) -7): 4.791% and 10.9715% and 7.661% and 21.2718% and 20.4101% and 18.8827% and 13.0494% and 8.164% and 16.1975% | cAMP % (mMOR; Log[drug] (M) -8): 1.666% and 6.134% and 7.138% and 7.653% and 6.95% and 8.768% and 3.363% and -0.1101% and 16.7433% | cAMP % (mMOR; Log[drug] (M) -9): 0.8145% and -7.096% and 6.2815% and 3.889% and -6.162% and 2.273% and -4.16% and 0.06827% and 4.092% | cAMP % (mMOR; Log[drug] (M) -10): 13.6379% and 11.7751% and 16.0473% and 16.5566% and -2.169% and 7.345% and 0.7238% and 2.035% and 11.7782% | cAMP % (mMOR; Log[drug] (M) -11): 20.0905% and 12.8035% and 2.268% and 1.246% and -1.253% and 18.3526% and 6.666% and -0.8467% and -5.17% | cAMP % (mMOR; [1]): 13.7634% and 17.6649% and 9.384% and 11.7249% and -6.349% and 6.202% and -0.02358% and 4.732% and 0.04545% | Emax (mMOR; maximal inhibitory effect on cAMP levels relative to DAMGO): 21% | EC50 (mMOR; n = 3, read-out: EC50): 97 nM
